In brackets after ≈: the same amount, converted by molar mass.
Assays:
[1] = system: HCMV recombinant mutant virus (RV145); assay: HCMV microtiter plate assay (beta-glucuronidase reporter); assay type: cell-based, Human Cytomegalovirus; conditions: HCMV in human foreskin fibroblasts
Method in brief: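 Replication was read out as virus-encoded β-glucuronidase activity, measured with a chromogenic or fluorogenic glucuronide substrate in cell lysates at 96 h post-infection. Infection of human foreskin fibroblasts with RV145 took place with compound present. IC50 was derived from a range of inhibitor amounts.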

[2] = system: VZV strain Ellen; assay: VZV Antiviral (ELISA) assay; assay type: cell-based; conditions: VZV strain Ellen in HFF cells; for % inhibition 10 ug/ml VZV: at 10 ug/ml
Method in brief: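 HFF cells infected overnight with VZV Ellen at MOI <0.1, mixed with uninfected cells, were seeded with compound and grown 3 days at 37° C in DMEM/2% FBS. Viral glycoprotein II was detected by ELISA with β-galactosidase-linked secondary; IC50 from fluorescence versus no-compound wells.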

[3] = system: HSV-1; assay: HSV Antiviral (ELISA) assay; assay type: cell-based; conditions: HSV-1 in Vero cells
Method in brief: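 Replication measured as glycoprotein D signal in fixed cells: anti-gD antibody plus β-galactosidase-linked secondary, fluorogenic substrate read at 365/450 nm. Vero cells (2% FBS DMEM) received compound 30 min pre-infection, HSV-1 MOI 0.006, ~24 h incubation; IC50 relative to no-compound fluorescence.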

SMILES | IC50 (ug/ml) HCMV [1] | IC50 (ug/ml) VZV [2] | IC50 (ug/ml) HSV [3] | % inhibition 10 ug/ml VZV [2]
NNC(=O)c1cccc(NC(=S)Nc2ccc(NC(=O)c3ccco3)cc2)c1 [Example 447] | >10 µg/mL | >10 µg/mL | >10 µg/mL | 
NNC(=O)c1cccc(NC(=S)Nc2ccc(NC(=O)c3csnn3)cc2)c1 [Example 449] | 1.6 µg/mL (≈ 3.87 µM) | >10 µg/mL | >10 µg/mL | 
CC(C)c1cccc(NC(=S)Nc2ccc(NC(=O)c3csnn3)cc2)c1 [Example 450] | 0.05 µg/mL (≈ 0.126 µM) | >10 µg/mL | >10 µg/mL | 
CC(C)c1cccc(NC(=S)Nc2ccc(NC(=O)c3ccco3)cc2)c1 [Example 451] | 0.15 µg/mL (≈ 0.395 µM) | >10 µg/mL | 8 µg/mL (≈ 21.1 µM) | 
N#Cc1cccc(NC(=S)Nc2ccc(NC(=O)c3csnn3)cc2)c1 [Example 453] | 0.07 µg/mL (≈ 0.184 µM) | 3 µg/mL (≈ 7.89 µM) | >10 µg/mL | 
CN(C)c1cccc(NC(=S)Nc2ccc(NC(=O)c3ccco3)cc2)c1 [Example 455] | 0.3 µg/mL (≈ 0.788 µM) | >10 µg/mL | >10 µg/mL | 30%
Cc1cccc(NC(=S)Nc2ccc(NC(=O)c3csnn3)cc2)c1 [Example 456] | 0.07 µg/mL (≈ 0.189 µM) | >10 µg/mL | >10 µg/mL | 12%
O=C(Nc1ccc(NC(=S)Nc2cccc(C(F)(F)F)c2)cc1)c1csnn1 [Example 457] | 0.019 µg/mL (≈ 0.0449 µM) | >10 µg/mL | >10 µg/mL | 26%
CC(=O)Nc1cccc(NC(=S)Nc2ccc(NC(=O)c3ccco3)cc2)c1 [Example 462] | 1 µg/mL (≈ 2.54 µM) | >10 µg/mL | >10 µg/mL | 6%
CC(O)c1cccc(NC(=S)Nc2ccc(NC(=O)c3csnn3)cc2)c1 (centres unmarked) [Example 464] | 0.15 µg/mL (≈ 0.375 µM) | >10 µg/mL | >10 µg/mL | 25%
Nc1cc(Cl)cc(NC(=S)Nc2ccc(NC(=O)c3csnn3)cc2)c1 [Example 466] | 0.011 µg/mL (≈ 0.0272 µM) | >10 µg/mL | >10 µg/mL | 93%
COc1cc(NC(=S)Nc2ccc(NC(=O)c3ccco3)cc2)cc(OC)c1 [Example 467] | 0.12 µg/mL (≈ 0.302 µM) | >15 µg/mL | >10 µg/mL | 93%
COc1cc(NC(=S)Nc2ccc(NC(=O)c3csnn3)cc2)cc(OC)c1 [Example 468] | 0.06 µg/mL (≈ 0.144 µM) | >10 µg/mL | >10 µg/mL | 50%
COC(=O)c1cc(NC(=S)Nc2ccc(NC(=O)c3ccco3)cc2)cc(C(=O)OC)c1 [Example 469] | 0.1 µg/mL (≈ 0.221 µM) | >10 µg/mL | >10 µg/mL | 54%
COc1cc(OC)c(NC(=S)Nc2ccc(NC(=O)c3ccno3)cc2)cc1Cl [Example 470] | 0.7 µg/mL (≈ 1.62 µM) | >10 µg/mL | 0.6 µg/mL (≈ 1.39 µM) | 17%
CC(O)c1cccc(NC(=S)Nc2ccc(NC(=O)c3ccco3)cc2)c1 (centres unmarked) [Example 472] | 0.8 µg/mL (≈ 2.1 µM) | >10 µg/mL | >10 µg/mL | 31%
COc1cccc(NC(=S)Nc2ccc(NC(=O)c3ccco3)cc2)c1 [Example 473] | 0.3 µg/mL (≈ 0.816 µM) | >10 µg/mL | >10 µg/mL | 40%
O=C(Nc1ccc(NC(=S)Nc2cccc(O)c2)cc1)c1ccco1 [Example 474] | 1 µg/mL (≈ 2.83 µM) | >10 µg/mL | >10 µg/mL | 22%
CC(=O)Nc1cccc(NC(=S)Nc2ccc(NC(=O)c3csnn3)cc2)c1 [Example 478] | 0.4 µg/mL (≈ 0.97 µM) | >10 µg/mL | >10 µg/mL | 31%
CN(C)c1cccc(NC(=S)Nc2ccc(NC(=O)c3csnn3)cc2)c1 [Example 479] | 0.1 µg/mL (≈ 0.251 µM) | >10 µg/mL | >10 µg/mL | 30%

SMILES | IC50 (ug/ml) HCMV [1] | IC50 (ug/ml) VZV [2] | IC50 (ug/ml) HSV [3] | % inhibition 10 ug/ml VZV [2]
O=C(Nc1ccc(NC(=S)Nc2ccc3[nH]ncc3c2)cc1)c1ccco1 [Example 481] | 0.5 µg/mL (≈ 1.32 µM) | >10 µg/mL | >10 µg/mL | 32%
O=C(Nc1ccc(NC(=S)Nc2ccc3scnc3c2)cc1)c1ccco1 [Example 482] | 0.3 µg/mL (≈ 0.76 µM) | >10 µg/mL | 9 µg/mL (≈ 22.8 µM) | 33%
COC(=O)c1cc(NC(=S)Nc2ccc(NC(=O)c3csnn3)cc2)cc(C(=O)OC)c1 [Example 485] | 0.03 µg/mL (≈ 0.0636 µM) | >10 µg/mL | >10 µg/mL | 11%
CC(N=[N+]=[N-])c1ccc(NC(=S)Nc2ccc(NC(=O)c3ccco3)cc2)cc1Cl (centres unmarked) [Example 486] | 0.045 µg/mL (≈ 0.102 µM) | >10 µg/mL | >10 µg/mL | 22%
O=C(Nc1ccc(NC(=S)Nc2cccc(CO)c2)cc1)c1ccco1 [Example 488] | 1.2 µg/mL (≈ 3.27 µM) | >10 µg/mL | >10 µg/mL | 13%
CN(C)c1ccc(Cl)cc1NC(=S)Nc1ccc(NC(=O)c2ccco2)cc1 [Example 489] | 0.17 µg/mL (≈ 0.41 µM) | 3.5 µg/mL (≈ 8.44 µM) | 5 µg/mL (≈ 12.1 µM) | 99%
O=C(Nc1ccc(NC(=S)Nc2ccc3[nH]cnc3c2)cc1)c1ccco1 [Example 494] | 3.5 µg/mL (≈ 9.27 µM) | >10 µg/mL | >10 µg/mL | 6%
Cc1nc2cc(NC(=S)Nc3ccc(NC(=O)c4ccco4)cc3)ccc2[nH]1 [Example 495] | 3 µg/mL (≈ 7.66 µM) | >10 µg/mL | >10 µg/mL | 27%
CN(C)c1ccc(Cl)cc1NC(=S)Nc1ccc(NC(=O)c2csnn2)cc1 [Example 500] | 0.021 µg/mL (≈ 0.0485 µM) | >10 µg/mL | >10 µg/mL | 48%
Nc1nccc(-c2ccc(NC(=S)Nc3ccc(NC(=O)c4csnn4)cc3)cc2Cl)n1 [Example 501] | 0.032 µg/mL (≈ 0.0663 µM) | >10 µg/mL | >10 µg/mL | 10%
CN(C)c1c(Cl)cccc1NC(=S)Nc1ccc(NC(=O)c2csnn2)cc1 [Example 503] | 0.053 µg/mL (≈ 0.122 µM) | >10 µg/mL | 8 µg/mL (≈ 18.5 µM) | 64%
CN(C)c1c(Cl)cccc1NC(=S)Nc1ccc(NC(=O)c2ccco2)cc1 [Example 505] | 0.2 µg/mL (≈ 0.482 µM) | 8 µg/mL (≈ 19.3 µM) | 10 µg/mL (≈ 24.1 µM) | 79%
O=C(Nc1ccc(NC(=S)Nc2cccc(I)c2)cc1)c1csnn1 [Example 508] | 0.013 µg/mL (≈ 0.027 µM) | >10 µg/mL | >10 µg/mL | 7%
CC(C)(C)c1cccc(NC(=S)Nc2ccc(NC(=O)c3csnn3)cc2)c1 [Example 509] | 0.03 µg/mL (≈ 0.0729 µM) | >10 µg/mL | >10 µg/mL | 31%
O=C(Nc1ccc(NC(=S)NCc2cccc(Cl)c2)cc1)c1ccco1 [Example 510] | 0.04 µg/mL (≈ 0.104 µM) | >10 µg/mL | 8 µg/mL (≈ 20.7 µM) | 19%
O=C(Nc1ccc(NC(=S)Nc2cccc(Br)c2)cc1)c1csnn1 [Example 513] | 0.011 µg/mL (≈ 0.0253 µM) | >10 µg/mL | >10 µg/mL | 10%
O=C(Nc1ccc(NC(=S)Nc2cc(C(F)(F)F)cc(C(F)(F)F)c2)cc1)c1ccco1 [Example 516] | 0.04 µg/mL (≈ 0.0845 µM) | >10 µg/mL | >10 µg/mL | 7%
Nc1c(Br)cc(NC(=S)Nc2ccc(NC(=O)c3csnn3)cc2)cc1Br [Example 521] | 0.04 µg/mL (≈ 0.0757 µM) | 3 µg/mL (≈ 5.68 µM) | 10 µg/mL (≈ 18.9 µM) | 97%
CN(C)c1cc(Cl)cc(NC(=S)Nc2ccc(NC(=O)c3csnn3)cc2)c1 [Example 522] | 0.025 µg/mL (≈ 0.0577 µM) | >10 µg/mL | >10 µg/mL | 32%
CN(C)c1cc(Cl)cc(NC(=S)Nc2ccc(NC(=O)c3ccco3)cc2)c1 [Example 524] | 0.055 µg/mL (≈ 0.133 µM) | 2 µg/mL (≈ 4.82 µM) | 4 µg/mL (≈ 9.64 µM) | 95%

— patent US6426355B1, “Heterocyclic carboxamide-containing thiourea inhibitors of herpes viruses containing phenylenediamine group” (American Home Products, priority 1998, dated 2002)
